In patent US9302999B2, “Substituted triazoles as herbicides” (E. I. DU PONT DE NEMOURS AND COMPANY, priority 2012, dated 2016):

Assays:
Assay type in all cases: in vivo
[1] = system: morningglory (Ipomoea coccinea); assay: Test C pre-/postemergence: morningglory
Summary of the method: (§1)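 Preemergence on seeds in loam/sand, postemergence on 2–18 cm (1–4-leaf) plants in peat-based medium; compounds in non-phytotoxic solvent with surfactant. After 13–15 days in greenhouse, visual rating versus controls, 0 (no effect) to 100 (complete control).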

[2] = system: ryegrass, Italian (Italian ryegrass, Lolium multiflorum); assay: Test C pre-/postemergence: ryegrass, Italian
Summary of the method: as §1

[3] = system: ducksalad (Heteranthera limosa); assay: Test B flooded paddy: ducksalad; settings: Flood, applied to paddy water at 2-leaf stage, visually evaluated after 13 to 15 days
Summary of the method: (§2)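 Plants were grown to the 2-leaf stage and pots flooded to 3 cm above soil. Compounds were applied directly into the paddy water, with depth kept for the test. After 13–15 days in greenhouse, response was rated visually against controls on a 0 (no effect) to 100 (complete control) scale.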

[4] = system: chickweed (common chickweed, Stellaria media); assay: Test C postemergence: chickweed
Summary of the method: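 Visual 0–100 injury score vs untreated controls (0 none, 100 complete control), taken 13–15 d after treatment. Postemergence spray on potted plants, 2–18 cm, 1–4 leaves; greenhouse.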

[5] = system: barnyardgrass (Echinochloa crus-galli); assay: Test B flooded paddy: barnyardgrass; settings: Flood, applied to paddy water at 2-leaf stage, visually evaluated after 13 to 15 days
Summary of the method: as §2

[6] = system: sedge, umbrella (small-flower umbrella sedge Cyperus difformis); assay: Test B flooded paddy: sedge, umbrella; settings: Flood, applied to paddy water at 2-leaf stage, visually evaluated after 13 to 15 days
Summary of the method: as §2

corn (Zea mays) = assay: Test C pre-/postemergence: corn
Summary of the method: as §1

[7] = system: winter wheat (Triticum aestivum); assay: Test C pre-/postemergence: winter wheat
Summary of the method: as §1

[8] = system: blackgrass (Alopecurus myosuroides); assay: Test C pre-/postemergence: blackgrass
Summary of the method: as §1

[9] = system: large crabgrass (Digitaria sanguinalis); assay: Test C pre-/postemergence: large crabgrass
Summary of the method: as §1

[10] = system: velvetleaf (Abutilon theophrasti); assay: Test A pre-/postemergence: velvetleaf
Summary of the method: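 Injury was scored visually on a 0 (no effect) to 100 (complete control) scale versus untreated controls roughly ten days after treatment in the greenhouse. Compounds, formulated in surfactant-containing non-phytotoxic solvent, went on as soil-directed preemergence spray or postemergence to one- to two-leaf plants 2–10 cm tall.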

[11] = Postemergence, 31 g ai/ha, scale 0 to 100 (0 no effect, 100 complete control)
[12] = Postemergence, 62 g ai/ha, scale 0 to 100 (0 no effect, 100 complete control)
[13] = Postemergence, 250 g ai/ha, scale 0 to 100 (0 no effect, 100 complete control)
[14] = Preemergence, 31 g ai/ha, scale 0 (no effect) to 100 (complete control)
[15] = Preemergence, 62 g ai/ha, scale of 0 to 100, 0 is no effect, 100 is complete control
[16] = Preemergence, 125 g ai/ha, scale 0 to 100, 0 no effect, 100 complete control
[17] = Preemergence, 250 g ai/ha, scale 0 to 100, 0 no effect, 100 complete control
[18] = Postemergence, 125 g ai/ha, scale 0 to 100, 0 no effect, 100 complete control
[19] = 31 g ai/ha, scale 0 to 100 (0 no effect, 100 complete control)
[20] = 62 g ai/ha, scale 0 to 100 (0 no effect, 100 complete control)
[21] = 125 g ai/ha, scale 0 to 100, 0 no effect, 100 complete control
[22] = Postemergence, 250 g ai/ha, scale 0 to 100
[23] = Postemergence, 125 g ai/ha, 0 to 100 scale, 0 is no effect, 100 is complete control
[24] = Postemergence, 500 g ai/ha, 0 to 100 scale, 0 is no effect, 100 is complete control
[25] = Preemergence, 125 g ai/ha, 0 to 100 scale where 0 is no effect and 100 is complete control
[26] = Preemergence, 500 g ai/ha, 0 to 100 scale (0 no effect, 100 complete control)

Compound: CCCc1nn(-c2ccc(F)c(F)c2)nc1Oc1ccnc(C(F)(F)F)c1 [Compound 172]
- Plant response rating, Morningglory [1, 11]: 65
- Plant response rating, Morningglory [1, 12]: 80
- Plant response rating, Morningglory [1, 13]: 80
- Plant response rating, Morningglory [1, 14]: 30
- Plant response rating, Morningglory [1, 15]: 35
- Plant response rating, Morningglory [1, 16]: 55
- Plant response rating, Morningglory [1, 17]: 70
- Plant response rating, Ryegrass, Italian [2, 11]: 10
- Plant response rating, Ryegrass, Italian [2, 12]: 20
- Plant response rating, Ryegrass, Italian [2, 18]: 35
- Plant response rating, Ryegrass, Italian [2, 13]: 40
- Plant response rating, Ryegrass, Italian [2, 14]: 100
- Plant response rating, Ryegrass, Italian [2, 15]: 100
- Plant response rating, Ryegrass, Italian [2, 16]: 100
- Plant response rating, Ryegrass, Italian [2, 17]: 100
- Plant response rating, Ducksalad (0 to 100 scale, 0 is no effect, 100 is complete control) ([3]; 250 g ai/ha): 0
- Plant response rating, Chickweed [4, 19]: 65
- Plant response rating, Chickweed [4, 20]: 85
- Plant response rating, Chickweed [4, 21]: 90
- Plant response rating, Chickweed ([4]; 250 g ai/ha, scale 0 to 100): 90
- Plant response rating, Barnyardgrass (0 to 100 scale, 0 is no effect, 100 is complete control) ([5]; 250 g ai/ha): 80
- Plant response rating, Sedge, Umbrella (0 to 100 scale, 0 is no effect, 100 is complete control) ([6]; 250 g ai/ha): 75
- Plant response rating, Corn (corn (Zea mays); [11]): 20
- Plant response rating, Corn (corn (Zea mays); [12]): 20
- Plant response rating, Corn (corn (Zea mays); [18]): 25
- Plant response rating, Corn (corn (Zea mays); [22]): 30
- Plant response rating, Corn (corn (Zea mays); [14]): 5
- Plant response rating, Corn (corn (Zea mays); [15]): 5
- Plant response rating, Corn (corn (Zea mays); [16]): 15
- Plant response rating, Corn (corn (Zea mays); [17]): 40
- Plant response rating, Wheat [7, 11]: 10
- Plant response rating, Wheat [7, 12]: 20
- Plant response rating, Wheat [7, 18]: 25
- Plant response rating, Wheat [7, 13]: 30
- Plant response rating, Wheat [7, 14]: 15
- Plant response rating, Wheat [7, 15]: 40
- Plant response rating, Wheat [7, 16]: 45
- Plant response rating, Wheat [7, 17]: 45
- Plant response rating, Blackgrass [8, 11]: 10
- Plant response rating, Blackgrass [8, 12]: 25
- Plant response rating, Blackgrass [8, 18]: 60
- Plant response rating, Blackgrass [8, 22]: 60
- Plant response rating, Blackgrass [8, 14]: 90
- Plant response rating, Blackgrass [8, 15]: 95
- Plant response rating, Blackgrass [8, 16]: 95
- Plant response rating, Blackgrass [8, 17]: 95
- Plant response rating, Crabgrass, Large [9, 11]: 20
- Plant response rating, Crabgrass, Large [9, 12]: 55
- Plant response rating, Crabgrass, Large [9, 18]: 65
- Plant response rating, Crabgrass, Large [9, 22]: 95
- Plant response rating, Crabgrass, Large [9, 14]: 100
- Plant response rating, Crabgrass, Large [9, 15]: 100
- Plant response rating, Crabgrass, Large [9, 16]: 100
- Plant response rating, Crabgrass, Large [9, 17]: 100
- Plant response rating, Velvetleaf [10, 23]: 90
- Velvetleaf plant response rating [10, 24]: 100
- Plant response rating, Velvetleaf [10, 25]: 80
- Plant response rating, Velvetleaf [10, 26]: 90

Compound: CCCc1nn(-c2ccc(F)cc2F)nc1Oc1ccnc(C(F)(F)F)c1 [Compound 179]
- Plant response rating, Morningglory [1, 11]: 65
- Plant response rating, Morningglory [1, 12]: 80
- Plant response rating, Morningglory [1, 18]: 80
- Plant response rating, Morningglory [1, 13]: 90
- Plant response rating, Morningglory [1, 14]: 5
- Plant response rating, Morningglory [1, 15]: 40
- Plant response rating, Morningglory [1, 16]: 55
- Plant response rating, Morningglory [1, 17]: 65
- Plant response rating, Ryegrass, Italian [2, 11]: 10
- Plant response rating, Ryegrass, Italian [2, 12]: 15
- Plant response rating, Ryegrass, Italian [2, 18]: 25
- Plant response rating, Ryegrass, Italian [2, 13]: 40
- Plant response rating, Ryegrass, Italian [2, 14]: 45
- Plant response rating, Ryegrass, Italian [2, 15]: 95
- Plant response rating, Ryegrass, Italian [2, 16]: 95
- Plant response rating, Ryegrass, Italian [2, 17]: 95
- Plant response rating, Ducksalad (0 to 100 scale, 0 is no effect, 100 is complete control) ([3]; 125 g ai/ha): 65
- Plant response rating, Chickweed [4, 19]: 75
- Plant response rating, Chickweed [4, 20]: 80
- Plant response rating, Chickweed [4, 21]: 85
- Plant response rating, Chickweed ([4]; 250 g ai/ha, scale 0 to 100): 95
- Plant response rating, Barnyardgrass (0 to 100 scale, 0 is no effect, 100 is complete control) ([5]; 125 g ai/ha): 0
- Plant response rating, Sedge, Umbrella (0 to 100 scale, 0 is no effect, 100 is complete control) ([6]; 125 g ai/ha): 75
- Plant response rating, Corn (corn (Zea mays); [11]): 15
- Plant response rating, Corn (corn (Zea mays); [12]): 15
- Plant response rating, Corn (corn (Zea mays); [18]): 15
- Plant response rating, Corn (corn (Zea mays); [22]): 15
- Plant response rating, Corn (corn (Zea mays); [14]): 5
- Plant response rating, Corn (corn (Zea mays); [15]): 20
- Plant response rating, Corn (corn (Zea mays); [16]): 20
- Plant response rating, Corn (corn (Zea mays); [17]): 20
- Plant response rating, Wheat [7, 11]: 5
- Plant response rating, Wheat [7, 12]: 10
- Plant response rating, Wheat [7, 18]: 15
- Plant response rating, Wheat [7, 13]: 15
- Plant response rating, Wheat [7, 14]: 5
- Plant response rating, Wheat [7, 15]: 15
- Plant response rating, Wheat [7, 16]: 50
- Plant response rating, Wheat [7, 17]: 55
- Plant response rating, Blackgrass [8, 11]: 30
- Plant response rating, Blackgrass [8, 12]: 50
- Plant response rating, Blackgrass [8, 18]: 55
- Plant response rating, Blackgrass [8, 22]: 60
- Plant response rating, Blackgrass [8, 14]: 80
- Plant response rating, Blackgrass [8, 15]: 100
- Plant response rating, Blackgrass [8, 16]: 100
- Plant response rating, Blackgrass [8, 17]: 100
- Plant response rating, Crabgrass, Large [9, 11]: 20
- Plant response rating, Crabgrass, Large [9, 12]: 20
- Plant response rating, Crabgrass, Large [9, 18]: 35
- Plant response rating, Crabgrass, Large [9, 22]: 80
- Plant response rating, Crabgrass, Large [9, 14]: 100
- Plant response rating, Crabgrass, Large [9, 15]: 100
- Plant response rating, Crabgrass, Large [9, 16]: 100
- Plant response rating, Crabgrass, Large [9, 17]: 100
- Plant response rating, Velvetleaf [10, 23]: 90
- Velvetleaf plant response rating [10, 24]: 100
- Plant response rating, Velvetleaf [10, 25]: 80
- Plant response rating, Velvetleaf [10, 26]: 100
